Patent publication US9309242B2, “Substituted pyrido[2,3-b]pyrazines as FGFR kinase inhibitors” (priority 2011, dated 2016)
Structures can show the parent of a compound that is named as a salt. Where two headings read alike, the source gives them in different places.

Columns and labels:
FGFR1 (h) = FGFR1 (h) (Homo sapiens, UniProt P11362); assay: FGFR1 (enzymatic assay), TR-FRET; format: biochemical; details: read-out: FGFR 1 pIC50 (converted)
[1] = system: Ba/F3-FGFR3-transfected cells; assay: Ba/F3-FGFR3 (plus IL3) cellular proliferation assay, counterscreen with 10 ng/ml murine IL3; format: cell-based; details: plus IL3 (10 ng/ml murine IL3, counterscreen); read-out: BAF3-FGFR3 (PLUS IL3) pIC50 (converted)
Outline: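 FGFR3-Ba/F3, 20000 cells/well, RPMI-1640 + 10% FBS, no phenol red; cpd in DMSO; 24 h, 37° C/5% CO2. Alamar Blue 4 h, RFU ex540/em590. Counterscreen: + murine IL3 10 ng/ml.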

[2] = molecular target: T1, Ba/F3-KDR-transfected cells (Homo sapiens, UniProt P35968); assay: Ba/F3-KDR (minus IL3) cellular proliferation assay, Alamar Blue; format: cell-based
T1 construct: BAF3-KDR (MIN IL3) pIC50; other: minus IL3
Outline: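 Ba/F3-KDR cells (20000 per well) in phenol red-free RPMI-1640 with 10% FBS were exposed to compound for 24 hours at 37° C, 5% CO2. Alamar Blue (resazurin) was then added for 4 hours, and fluorescence was read at ex. 540 nm/em. 590 nm.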

[3] = average values if tested multiple times

FGFR1 (h), sequence (P11362 22-822): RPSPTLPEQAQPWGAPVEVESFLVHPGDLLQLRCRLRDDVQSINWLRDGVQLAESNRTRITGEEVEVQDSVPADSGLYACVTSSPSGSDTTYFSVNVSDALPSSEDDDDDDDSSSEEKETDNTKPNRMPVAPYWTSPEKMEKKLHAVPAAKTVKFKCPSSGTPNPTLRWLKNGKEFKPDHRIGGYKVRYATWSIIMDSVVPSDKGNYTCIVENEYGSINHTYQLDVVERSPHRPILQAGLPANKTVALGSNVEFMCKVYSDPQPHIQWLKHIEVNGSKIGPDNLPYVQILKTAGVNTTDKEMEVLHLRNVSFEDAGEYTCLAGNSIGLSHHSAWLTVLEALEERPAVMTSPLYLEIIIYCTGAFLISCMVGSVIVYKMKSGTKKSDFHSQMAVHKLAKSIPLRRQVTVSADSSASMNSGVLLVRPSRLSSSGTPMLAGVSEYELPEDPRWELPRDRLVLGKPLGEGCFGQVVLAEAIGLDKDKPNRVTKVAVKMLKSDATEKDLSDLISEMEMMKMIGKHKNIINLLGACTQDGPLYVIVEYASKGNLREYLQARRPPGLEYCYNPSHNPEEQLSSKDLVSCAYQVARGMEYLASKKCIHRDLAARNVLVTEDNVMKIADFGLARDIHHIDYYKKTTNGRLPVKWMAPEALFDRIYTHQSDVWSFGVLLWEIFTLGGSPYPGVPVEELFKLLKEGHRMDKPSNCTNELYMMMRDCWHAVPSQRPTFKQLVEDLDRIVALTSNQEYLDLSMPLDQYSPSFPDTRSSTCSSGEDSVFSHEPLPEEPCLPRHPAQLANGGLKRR
T1 sequence (P35968 whole entry, change not shown): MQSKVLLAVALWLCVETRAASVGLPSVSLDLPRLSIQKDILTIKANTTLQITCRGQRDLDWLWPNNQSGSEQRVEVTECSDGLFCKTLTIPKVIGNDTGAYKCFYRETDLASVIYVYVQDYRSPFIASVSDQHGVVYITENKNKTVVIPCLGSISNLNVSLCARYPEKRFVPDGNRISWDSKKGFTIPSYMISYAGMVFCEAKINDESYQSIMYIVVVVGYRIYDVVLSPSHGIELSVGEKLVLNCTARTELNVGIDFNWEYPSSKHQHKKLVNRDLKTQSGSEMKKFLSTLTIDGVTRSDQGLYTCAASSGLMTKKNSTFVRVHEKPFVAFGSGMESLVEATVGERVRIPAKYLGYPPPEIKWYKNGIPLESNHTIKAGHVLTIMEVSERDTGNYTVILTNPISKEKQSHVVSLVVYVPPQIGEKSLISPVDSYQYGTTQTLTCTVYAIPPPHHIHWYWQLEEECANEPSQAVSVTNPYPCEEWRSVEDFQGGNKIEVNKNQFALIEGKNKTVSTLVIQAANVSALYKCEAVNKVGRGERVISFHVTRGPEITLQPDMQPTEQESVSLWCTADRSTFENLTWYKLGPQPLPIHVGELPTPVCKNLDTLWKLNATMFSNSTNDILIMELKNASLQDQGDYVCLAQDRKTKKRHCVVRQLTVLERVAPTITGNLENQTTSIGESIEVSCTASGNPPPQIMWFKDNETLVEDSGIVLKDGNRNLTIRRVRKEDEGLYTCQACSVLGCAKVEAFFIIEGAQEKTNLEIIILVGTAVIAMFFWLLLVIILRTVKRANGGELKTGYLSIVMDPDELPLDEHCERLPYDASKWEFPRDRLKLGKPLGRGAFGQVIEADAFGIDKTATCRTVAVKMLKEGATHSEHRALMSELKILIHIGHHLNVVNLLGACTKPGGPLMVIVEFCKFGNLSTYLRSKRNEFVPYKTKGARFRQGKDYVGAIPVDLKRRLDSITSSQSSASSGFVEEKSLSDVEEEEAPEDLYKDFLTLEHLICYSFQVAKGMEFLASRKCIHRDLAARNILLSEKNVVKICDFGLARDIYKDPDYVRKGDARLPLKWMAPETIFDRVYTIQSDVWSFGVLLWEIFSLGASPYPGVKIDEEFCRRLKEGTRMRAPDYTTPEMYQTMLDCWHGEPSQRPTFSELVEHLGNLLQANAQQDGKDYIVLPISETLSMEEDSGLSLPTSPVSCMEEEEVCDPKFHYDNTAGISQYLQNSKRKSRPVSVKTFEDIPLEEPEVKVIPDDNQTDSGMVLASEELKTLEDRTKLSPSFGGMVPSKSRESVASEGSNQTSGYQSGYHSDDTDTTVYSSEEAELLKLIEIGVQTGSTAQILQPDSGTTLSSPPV

Row | Structure (SMILES) | IC50 (FGFR1 (h); [3]) [nM] | IC50 [1] [nM] | BAF3-KDR (MIN IL3) pIC50 [2] | IC50 (FGFR1 (h)) [nM]
1 | COc1cc(OC)c(F)c(N(CC(O)COC(C)C)c2ccc3ncc(-c4cnn(C)c4)nc3n2)c1 (single isomer, unassigned) [Compound 75] | 2.14 | > 10000 | 6.16 | 
2 | COc1cc(OC)c(F)c(N(Cc2nc[nH]n2)c2ccc3ncc(-c4cnn(C)c4)nc3n2)c1F [Compound 85] | 1.02 | > 10000 | 6.43 | 
3 | CNCCN(c1ccc2ncc(-c3cnn(C)c3)nc2n1)c1c(F)c(O)cc(OC)c1F [Compound 122] |  | > 10000 | <5 | 2.82
4 | COc1cc(OC)c(F)c(N(Cc2nc[nH]n2)c2ccc3ncc(-c4cnn(C)c4)nc3n2)c1 [Compound 86] | 1.26 | > 10000 | 6.24 | 
5 | COc1cc(OC)c(F)c(N(Cc2c[nH]c(C)n2)c2ccc3ncc(-c4cnn(C)c4)nc3n2)c1 [Compound 137] |  | > 10000 | 6.19 | 1.48
6 | COc1cc(/N=c2\ccc3ncc(-c4cnn(C)c4)nc3n2CC2COC(=O)N2)c(F)c(OC)c1 (single isomer, unassigned) [Compound 112] | 1.26 | > 10000 | 5.65 | 
7 | COc1cc(/N=c2\ccc3ncc(-c4cnn(C)c4)nc3n2Cc2cc[nH]n2)c(F)c(OC)c1 [Compound 115] | 0.708 | > 10000 | 6.58 | 
8 | COc1cc(OC)c(F)c(N(Cc2nncn2C)c2ccc3ncc(-c4cnn(C)c4)nc3n2)c1 [Compound 132] |  | > 10000 | 5.38 | 5.62
9 | COc1cc(OC)c(F)c(N(CCN)c2ccc3ncc(-c4cnn(C)c4)nc3n2)c1F [Compound 67] | 0.813 | > 10000 | 6.59 | 
10 | COc1cc(OC)c(F)c(N(CCCN2CCCC2=O)c2ccc3ncc(-c4cnn(C)c4)nc3n2)c1 [Compound 120] |  | > 10000 | 6.10 | 4.17
11 | COc1ccc(Cl)c(N(Cc2ncc[nH]2)c2ccc3ncc(-c4cnn(C)c4)nc3n2)c1Cl [Compound 65] | 38.9 | > 10000 | 5.06 | 
12 | COc1cc(OC)c(F)c(N(CC2CCC(=O)N2)c2ccc3ncc(-c4cnn(C)c4)nc3n2)c1F (stereo not drawn) [Compound 192] | 1.15 | > 10000 | 6.11 | 
13 | COc1cc(OC)c(F)c(N(CC(O)COC(C)C)c2ccc3ncc(-c4cnn(C)c4)nc3n2)c1F (stereo not drawn) [Compound 63] | 3.72 | > 10000 | 6.58 | 
14 | CNCCn1/c(=N/c2c(Cl)ccc(OC)c2Cl)ccc2ncc(-c3cnn(C)c3)nc21 [Compound 84] | 224 | > 10000 | <5 | 
15 | COc1cc(/N=c2\ccc3ncc(-c4cnn(C)c4)nc3n2CCCN2CCCC2=O)c(F)c(OC)c1 [Compound 119] |  | > 3980 | ~6.52 | 1.41
16 | COc1cc(OC)c(F)c(N(Cc2ccn(C)n2)c2ccc3ncc(-c4cnn(C)c4)nc3n2)c1 [Compound 128] |  | > 10000 | 6.34 | 1.32
17 | COc1cc(OC)c(F)c(N(Cc2ccnn2C)c2ccc3ncc(-c4cnn(C)c4)nc3n2)c1 [Compound 113] | 2 | > 10000 | 5.33 | 
18 | CNCCN(c1ccc2ncc(-c3cnn(C)c3)nc2n1)c1c(F)ccc(OC)c1Cl [Compound 69] | 3.02 | > 10000 | 5.13 | 
19 | COc1cc(OC)c(F)c(N(Cc2ncc[nH]2)c2ccc3ncc(-c4cnn(C)c4)nc3n2)c1 [Compound 23] | 0.741 | > 10000 | 6.74 | 
20 | COc1cc(OC)c(Cl)c(N(Cc2ncc[nH]2)c2ccc3ncc(-c4cnn(C)c4)nc3n2)c1Cl [Compound 98] | ~3.89 | > 10000 | 6.19 | 
21 | COc1cc(OC)c(F)c(N(CCO)c2ccc3ncc(-c4cnn(C)c4)nc3n2)c1 [Compound 40] | 0.724 | > 10000 | 6.00 | 
22 | COc1cc(OC)c(F)c(N(Cc2nccn2C)c2ccc3ncc(-c4cnn(C)c4)nc3n2)c1 [Compound 131] |  | > 10000 | 5.50 | 2.14
23 | COc1cc(OC)c(F)c(N(Cc2cc[nH]n2)c2ccc3ncc(-c4cnn(C)c4)nc3n2)c1 [Compound 118] | 0.759 | > 10000 | 6.60 | 
24 | COc1cc(OC)c(F)c(N(Cc2c[nH]cn2)c2ccc3ncc(-c4cnn(C)c4)nc3n2)c1 [Compound 41] | 0.363 | > 10000 | 6.70 | 

Row | Structure (SMILES) | IC50 (FGFR1 (h); [3]) [nM] | IC50 [1] [nM] | BAF3-KDR (MIN IL3) pIC50 [2] | IC50 (FGFR1 (h)) [nM]
25 | COc1cc(OC)c(F)c(/N=c2\ccc3ncc(-c4cnn(C)c4)nc3n2CC(O)COC(C)C)c1F (stereo not drawn) [Compound 64] | 0.776 | > 10000 | 6.31 | 
26 | COc1cc(OC)cc(N(Cc2ncc[nH]2)c2ccc3ncc(-c4cnn(C)c4)nc3n2)c1 [Compound 24] | 0.55 | > 10000 | 6.22 | 
27 | COc1ccc(Cl)c(/N=c2\ccc3ncc(-c4cnn(C)c4)nc3n2CC2CCC(=O)N2)c1Cl (stereo not drawn) [Compound 92] | 61.7 | > 10000 | <5 | 
28 | COc1cc(OC)c(F)c(N(Cc2nc(C)c[nH]2)c2ccc3ncc(-c4cnn(C)c4)nc3n2)c1 [Compound 135] |  | > 10000 | 6.64 | 1.17
29 | COc1cc(/N=c2\ccc3ncc(-c4cnn(C)c4)nc3n2Cc2ccnn2C)c(F)c(OC)c1 [Compound 114] | 0.933 | > 10000 | ~7.05 | 
30 | COc1cc(OC)c(F)c(N(Cc2nc[nH]c2C)c2ccc3ncc(-c4cnn(C)c4)nc3n2)c1 [Compound 109] | 1.15 | > 10000 | ~6.01 | 
31 | COc1cc(OC)c(Cl)c(N(Cc2ncc[nH]2)c2ccc3ncc(-c4cnn(C)c4)nc3n2)c1 [Compound 42] | 1.38 | > 10000 | 6.89 | 
32 | COc1cc(OC)c(F)c(N(CC2CCC(=O)N2)c2ccc3ncc(-c4cnn(C)c4)nc3n2)c1 (stereo not drawn) [Compound 46] | 1.82 | > 10000 | 5.35 | 
33 | CNCCN(c1ccc2ncc(-c3cnn(C)c3)nc2n1)c1c(Cl)ccc(OC)c1Cl [Compound 83] | 75.9 | > 10000 | <5 | 
34 | COc1cc(OC)c(F)c(N(Cc2nc3c([nH]2)CCNC3)c2ccc3ncc(-c4cnn(C)c4)nc3n2)c1 [Compound 104] | 2.57 | > 10000 | 5.10 | 
35 | COc1cc(OC)c(F)c(/N=c2\ccc3ncc(-c4cnn(C)c4)nc3n2CC2CCC(=O)N2)c1F (stereo not drawn) [Compound 193] | 0.55 | > 10000 | 6.28 | 
36 | COc1cc(OC)cc(N(CCCN2CCCC2=O)c2ccc3ncc(-c4cnn(C)c4)nc3n2)c1 [Compound 134] |  | > 10000 | 5.20 | 8.71
37 | COc1cc(OC)c(F)c(N(CCCN2CCCC2=O)c2ccc3ncc(-c4cnn(C)c4)nc3n2)c1F [Compound 56] | 0.891 | > 10000 | 6.60 | 
38 | COc1cc(OC)c(F)c(N(Cc2ncc[nH]2)c2ccc3ncc(-c4cnn(Cc5ncc[nH]5)c4)nc3n2)c1 [Compound 100] | 1.29 | > 10000 | 5.41 | 
39 | CNCCN(c1ccc2ncc(-c3cnn(C)c3)nc2n1)c1c(Cl)c(OC)cc(OC)c1Cl [Compound 81] | 5.89 | > 10000 | 5.36 | 
40 | CNCCN(c1ccc2ncc(-c3cn[nH]c3)nc2n1)c1c(F)c(OC)cc(OC)c1F [Compound 106] | 1.86 | > 10000 | 5.59 | 
41 | COc1cc(OC)c(Cl)c(N(CC2CCC(=O)N2)c2ccc3ncc(-c4cnn(C)c4)nc3n2)c1Cl (single isomer, unassigned) [Compound 88] | 12.9 | > 10000 | 5.14 | 
42 | COc1cc(OC)c(F)c(N(Cc2cn[nH]c2)c2ccc3ncc(-c4cnn(C)c4)nc3n2)c1 [Compound 125] |  | > 10000 | 6.21 | 0.851
43 | COc1cc(/N=c2\ccc3ncc(-c4cnn(C)c4)nc3n2CC2COC(=O)N2)c(F)c(OC)c1 (stereo not drawn) [Compound 123] |  | > 10000 | 5.53 | 1.35
44 | COc1cc(OC)cc(N(Cc2ncc[nH]2)c2ccc3ncc(-c4cnn(C)c4)nc3n2)c1 (racemic) [24-DL-tartrate salt] | 0.355 | > 10000 | 6.30 | 
45 | COc1cc(OC)c(F)c(/N=c2\ccc3ncc(-c4cnn(C)c4)nc3n2CCN)c1F [Compound 68] | 0.575 | > 10000 | 6.07 | 
46 | COc1ccc(F)c(N(Cc2ncc[nH]2)c2ccc3ncc(-c4cnn(C)c4)nc3n2)c1Cl [Compound 73] | 2.4 | > 10000 | 5.55 | 
47 | COc1cc(OC)c(F)c(N(CC2COC(=O)N2)c2ccc3ncc(-c4cnn(C)c4)nc3n2)c1 (stereo not drawn) [Compound 124] |  | > 10000 | 5.49 | 3.09
